The test system of data set [1] is human buccal cell line (T146). The data set is described as follows: In vitro viability of human buccal cell line (T146), dose-response for safety/toxicity. Format: cell-based. As to conditions: dose-response of sodium suramin, FIG. 8. The text has this:
FIG. 8: In vitro viability of human buccal cell line (T146): dose-response of sodium suramin for safety/toxicity.
Suramin alone is amorphous or liquid-crystalline (FIGS. 5-7) and is safe in a human cell line (FIG. 8).

Data set [2] deals with chronic wounds in diabetic and healthy mice. The data set is described as follows: Wound healing in chronic wounds in diabetic (ob/ob) and healthy mice. The format is in vivo. The protocol: FIG. 25: suramin treatment results in increased granulation tissue and wound contraction. A) control. B) 0.15 μg surmain-treated; C) 1.5 μg surmain-treated; and d) 15 μg surmain-treated.

Setting [3] is: mice, 0.15, 1.5 and 15 μg suramin-treated vs control, FIG. 25.

Molecules are shown by their SMILES.

As for `Cc1ccc(C(=O)Nc2ccc(S(=O)(=O)O)c3cc(S(=O)(=O)O)cc(S(=O)(=O)O)c23)cc1NC(=O)c1cccc(NC(=O)Nc2cccc(C(=O)Nc3cc(C(=O)Nc4ccc(S(=O)(=O)O)c5cc(S(=O)(=O)O)cc(S(=O)(=O)O)c45)ccc3C)c2)c1` [suramin], the “safety in a human cell line (in vitro viability)” value in data set [1] is given as “safe”. In data set [2] (setting [3]), the granulation tissue result was “increased” and the wound contraction entry is “increased”. In addition, the “wound healing relative to controls” value in data set [2] (ob/ob mice, suramin treatment at different concentrations, FIG. 24) is “accelerated wound healing”.

The values are drawn from patent US11110060B2, “Compositions and methods for delivering pharmaceutical agents” (Arizona Board of Regents on Behalf of the University of …, priority 2017, dated 2021).
